Test results taken from PubChem BioAssay (NCI).
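Five compound concentrations were applied to cells in 96-well plates for 48 hours; endpoints were derived by simple linear interpolation of the resulting dose-response curve. The concentration for 50% growth inhibition is given as GI50. The concentration for full growth arrest is given as TGI.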

Tests used:
Experiment in all cases: inhibition of tumour cell growth, NCI panel, 48 h
[1] = system: 786-0 renal
[2] = system: A498 renal
[3] = system: A549 NSCLC
[4] = system: ACHN renal
[5] = system: BT-549 breast
[6] = system: CAKI-1 renal
[7] = system: CCRF-CEM leukemia
[8] = system: COLO 205 colon
[9] = system: DU-145 prostate
[10] = system: EKVX NSCLC
[11] = system: HCC-2998 colon
[12] = system: HCT-116 colon
[13] = system: HCT-15 colon
[14] = system: HL-60(TB) leukemia
[15] = system: HOP-62 NSCLC
[16] = system: HOP-92 NSCLC
[17] = system: HS 578T breast
[18] = system: HT29 colon
[19] = system: IGROV1 ovarian
[20] = system: KM12 colon
[21] = system: LOX IMVI melanoma
[22] = system: M14 melanoma
[23] = system: MALME-3M melanoma
[24] = system: MCF7 breast
[25] = system: MDA-MB-231 breast
[26] = system: MDA-MB-435
[27] = system: MOLT-4 leukemia
[28] = system: NCI-H23 lung
[29] = system: NCI-H460 lung
[30] = system: NCI-H522 lung
[31] = system: NCI/ADR-RES ovarian
[32] = system: OVCAR-3 ovarian
[33] = system: OVCAR-4 ovarian
[34] = system: OVCAR-5 ovarian
[35] = system: OVCAR-8 ovarian
[36] = system: PC-3 prostate
[37] = system: RPMI-8226 leukemia
[38] = system: RXF 393 renal
[39] = system: SF-268 CNS
[40] = system: SF-295 CNS
[41] = system: SF-539 CNS
[42] = system: SK-MEL-2 melanoma
[43] = system: SK-MEL-28 melanoma
[44] = system: SK-MEL-5 melanoma
[45] = system: SK-OV-3 ovarian
[46] = system: SN12C renal
[47] = system: SNB-19 CNS
[48] = system: SNB-75 CNS
[49] = system: SR leukemia
[50] = system: SW-620 colon
[51] = system: T-47D breast
[52] = system: TK-10 renal
[53] = system: U251 CNS
[54] = system: UACC-257 melanoma
[55] = system: UACC-62 melanoma
[56] = system: UO-31 renal

## CCN(CC)CCSCCCNc1c2ccc(Cl)cc2nc2ccc(OC)cc12
[1]
  GI50: 1120 nM
  TGI: 2430 nM
[2]
  GI50: 654 nM
  TGI: 2160 nM
[3]
  GI50: 980 nM
  TGI: 3030 nM
[4]
  GI50: 719 nM
  TGI: 3050 nM
[5]
  GI50: 1770 nM
  TGI: 3500 nM
[6]
  GI50: 1230 nM
  TGI: 3450 nM
[7]
  GI50: 1260 nM
  TGI: 4720 nM
[8]
  GI50: 800 nM
  TGI: 2250 nM
[9]
  GI50: 633 nM
  TGI: 3010 nM
[10]
  GI50: 1730 nM
  TGI: 4720 nM
[11]
  GI50: 1020 nM
  TGI: 2420 nM
[12]
  GI50: 488 nM
  TGI: 2070 nM
[13]
  GI50: 433 nM
  TGI: 2360 nM
[14]
  GI50: 1550 nM
  TGI: 4110 nM
[15]
  GI50: 558 nM
  TGI: 2210 nM
[16]
  GI50: 1640 nM
  TGI: 3410 nM
[17]
  GI50: 2120 nM
  TGI: 5280 nM
[18]
  GI50: 423 nM
  TGI: 1940 nM
[19]
  GI50: 1560 nM
  TGI: 4740 nM
[20]
  GI50: 802 nM
  TGI: 5030 nM
[21]
  GI50: 337 nM
  TGI: 1340 nM
[22]
  GI50: 1710 nM
  TGI: 3460 nM
[23]
  GI50: 2030 nM
  TGI: 3730 nM
[24]
  GI50: 791 nM
  TGI: 3260 nM
[25]
  GI50: 1010 nM
  TGI: 3000 nM
[26]
  GI50: 1460 nM
  TGI: 2890 nM
[27]
  GI50: 435 nM
  TGI: 3940 nM
[28]
  GI50: 1320 nM
  TGI: 3280 nM
[29]
  GI50: 383 nM
  TGI: 1580 nM
[30]
  GI50: 1390 nM
  TGI: 3130 nM
[31]
  GI50: 1150 nM
  TGI: 3700 nM
[32]
  GI50: 1300 nM
  TGI: 4180 nM
[33]
  GI50: 756 nM
  TGI: 3030 nM
[34]
  GI50: 1140 nM
  TGI: 4390 nM
[35]
  GI50: 1000 nM
  TGI: 3540 nM
[36]
  GI50: 1230 nM
  TGI: 3060 nM
[37]
  GI50: 1300 nM
  TGI: 4780 nM
[38]
  GI50: 925 nM
  TGI: 2380 nM
[39]
  GI50: 1060 nM
  TGI: 3010 nM
[40]
  GI50: 1130 nM
  TGI: 2760 nM
[41]
  GI50: 1400 nM
  TGI: 2970 nM
[42]
  GI50: 2060 nM
  TGI: 3870 nM
[43]
  GI50: 1840 nM
  TGI: 3800 nM
[44]
  GI50: 1800 nM
  TGI: 3240 nM
[45]
  GI50: 1560 nM
  TGI: 3920 nM
[46]
  GI50: 1040 nM
  TGI: 3480 nM
[47]
  GI50: 1250 nM
  TGI: 4880 nM
[48]
  GI50: 1280 nM
  TGI: 2720 nM
[49]
  GI50: 976 nM
  TGI: 4840 nM
[50]
  GI50: 511 nM
  TGI: 3330 nM
[51]
  GI50: 2050 nM
  TGI: 4820 nM
[52]
  GI50: 1550 nM
  TGI: 3870 nM
[53]
  GI50: 1700 nM
  TGI: 3320 nM
[54]
  GI50: 2060 nM
  TGI: 3850 nM
[55]
  GI50: 1930 nM
  TGI: 3870 nM
[56]
  GI50: 1270 nM
  TGI: 3290 nM
